Counter-ions that a name gives are not always drawn.
Target: T1, histamine-3 receptors (H3 receptor) (Rattus norvegicus, UniProt Q9QYN8)
T1 construct: from tissue; host or cells: male Sprague-Dawley rat brain cortex membranes
Experiment: (3H)-N-α-methylhistamine binding to rat cortical membranes (histamine-3 receptor ligands)
Details: male Sprague-Dawley rat brain cortical membranes; (3H)-N-α-methylhistamine ~0.6 nM; 30 minutes at 25° C.; Cheng-Prusoff
Protocol: Briefly, male Sprague-Dawley rat brain cortices were homogenized (1 g tissue/10 mL buffer) in 50 mM Tris-HCl/5 mM EDTA containing protease inhibitor cocktail (Calbiochem) using a polytron set at 20,500 rpm. Homogenates were centrifuged for 20 minutes at 40,000×g. The supernatant was decanted, and pellets were weighed. The pellet was resuspended by polytron homogenization in 40 mL 50 mM Tris-HCl/5 mM EDTA with protease inhibitors and centrifuged for 20 minutes at 40,000×g. […] Rat cortical membranes (12 mg wet weight/tube) were incubated with (^3H)-N-α-methylhistamine (˜0.6 nM) with or without H3 receptor antagonists in a total incubation volume of 0.5 mL of 50 mM Tris-HCl/5 mM EDTA (pH 7.7). Test compounds were dissolved in DSMO to provide a 20 mM solution, serially diluted and then added to the incubation mixture prior to initiating the incubation assay by addition of the membranes. Thioperamide (3 μM) was used to determine nonspecific binding. Binding incubations were conducted for 30 minutes at 25° C. and terminated by addition of 2 mL of ice cold 50 mM Tris-HCl (pH 7.7) and filtration through 0.3% polyethylenimine-soaked Unifilter plates (Packard). These filters were washed 4 additional times with 2 mL of ice-cold 50 mM Tris-HCl and dried for 1 hour. Radioactivity was determined using liquid scintillation counting techniques. Results were analyzed by Hill transformation and Ki values were determined using the Cheng-Prusoff equation.

T1 sequence (Q9QYN8 whole entry): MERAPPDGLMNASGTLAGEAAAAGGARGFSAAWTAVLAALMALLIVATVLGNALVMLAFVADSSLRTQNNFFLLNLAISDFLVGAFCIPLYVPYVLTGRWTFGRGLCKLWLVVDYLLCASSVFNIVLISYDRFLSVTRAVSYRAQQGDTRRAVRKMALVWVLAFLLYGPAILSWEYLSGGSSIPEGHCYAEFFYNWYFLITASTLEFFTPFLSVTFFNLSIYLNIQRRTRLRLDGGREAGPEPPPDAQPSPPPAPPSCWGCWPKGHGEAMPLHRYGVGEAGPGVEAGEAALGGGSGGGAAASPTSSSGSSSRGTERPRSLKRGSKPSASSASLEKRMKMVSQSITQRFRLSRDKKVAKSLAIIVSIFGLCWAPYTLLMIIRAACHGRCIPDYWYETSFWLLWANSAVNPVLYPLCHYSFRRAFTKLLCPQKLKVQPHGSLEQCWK

Row | Compound | Ki
1 | Cc1cc(-c2ccc3oc(CCN4CCC[C@H]4C)c(Br)c3c2)ccc1C#N [Example 155, 4-(3-bromo-2-{2-[(2R)-2-methyl-1-pyrrolidinyl]ethyl}-1-benzofuran-5-yl)-2-methylbenzonitrile] | 16 nM
2 | C[C@@H]1CCCN1CCc1oc2ccc(-c3ccc(C#N)cc3)cc2c1Cl [Example 156A, 4-(3-chloro-2-{2-[(2R)-2-methyl-1-pyrrolidinyl]ethyl}-1-benzofuran-5-yl)benzonitrile] | 3.7 nM
3 | C[C@@H]1CCCN1CCc1oc2cc(Cl)c(-c3ccc(C#N)cc3)cc2c1Cl [Example 156B, 4-(3,6-dichloro-2-{2-[(2R)-2-methyl-1-pyrrolidinyl]ethyl}-1-benzofuran-5-yl)benzonitrile] | 9.7 nM
4 | C[C@@H]1CCCN1CCc1oc2ccc(-c3ccc(C#N)cc3)cc2c1I [Example 157, 4-(3-iodo-2-{2-[(2R)-2-methyl-1-pyrrolidinyl]ethyl}-1-benzofuran-5-yl)benzonitrile] | 8.4 nM
5 | C[C@@H]1CCC(=O)N1CCc1cc2cc(-c3ccc(C#N)cc3)ccc2o1 [Example 158, 4-(2-{2-[(2R)-2-methyl-5-oxo-1-pyrrolidinyl]ethyl}-1-benzofuran-5-yl)benzonitrile] | > 1000 nM
6 | CC(=O)c1c(CCN2CCC[C@H]2C)oc2ccc(-c3ccc(C#N)cc3)cc12 [Example 159, 4-(3-acetyl-2-{2-[(2R)-2-methyl-1-pyrrolidinyl]ethyl}-1-benzofuran-5-yl)benzonitrile] | 14 nM
7 | C[C@@H]1CCCN1CCc1cc2cc(-c3ccc(C(=O)C4CC4)cc3)ccc2o1 [Example 160, cyclopropyl[4-(2-{2-[(2R)-2-methyl-1-pyrrolidinyl]ethyl}-1-benzofuran-5-yl)phenyl]methanone] | 7.6 nM
8 | Cc1noc(C)c1-c1ccc2oc(CCN3CCC[C@H]3C)cc2c1 [Example 161, 3,5-dimethyl-4-(2-{2-[(2R)-2-methyl-1-pyrrolidinyl]ethyl}-1-benzofuran-5-yl)isoxazole] | 1.6 nM
9 | N#Cc1ccc(-c2ccc3oc(CCN)cc3c2)cc1 [Example 162, 4-[2-(2-aminoethyl)-1-benzofuran-5-yl]benzonitrile] | 581 nM
10 | CC[C@@H]1CCCN1CCc1cc2cc(-c3ccc(C#N)cc3)ccc2o1 [Example 163, 4-(2-{2-[(2R)-2-ethyl-1-pyrrolidinyl]ethyl}-1-benzofuran-5-yl)benzonitrile] | 3.7 nM
11 | N#Cc1ccc(-c2ccc3oc(CCN4CCC[C@H]4CF)cc3c2)cc1 [Example 164, 4-(2-{2-[(2S)-2-(fluoromethyl)-1-pyrrolidinyl]ethyl}-1-benzofuran-5-yl)benzonitrile] | 24 nM
12 | C[C@@H]1CCCN1CCc1cc2cc(-c3ccc(C#N)cc3)ccc2s1 [Example 165, 4-(2-{2-[(2R)-2-methyl-1-pyrrolidinyl]ethyl}-1-benzothien-5-yl)benzonitrile] | 16.8 nM
13 | (2R)-1-{2-[5-(4-methoxyphenyl)-1-benzofuran-2-yl]ethyl}-2-methylpyrrolidine [Example 121] | 51 nM
14 | (2S)-1-(2-{5-[5-(4-morpholinylcarbonyl)-2-pyridinyl]-1-benzofuran-2-yl}ethyl)-2-pyrrolidinol [Example 62] | 112 nM

System: not given
Experiment: not given
Details: not given

Row | Compound | melting point
15 | CC[C@@H]1CCCN1CCc1cc2cc(-c3ccc(C#N)cc3)ccc2o1 (as salt: tartrate) [Example 163, 4-(2-{2-[(2R)-2-ethyl-1-pyrrolidinyl]ethyl}-1-benzofuran-5-yl)benzonitrile] | 147 °C
16 | N#Cc1ccc(-c2ccc3oc(CCN4CCC[C@H]4CF)cc3c2)cc1 (as salt: tartrate) [Example 164, 4-(2-{2-[(2S)-2-(fluoromethyl)-1-pyrrolidinyl]ethyl}-1-benzofuran-5-yl)benzonitrile] | 156.3 °C
17 | N#Cc1ccc(-c2ccc3oc(CCN)cc3c2)cc1 [Example 162, 4-[2-(2-aminoethyl)-1-benzofuran-5-yl]benzonitrile] | 118 to 120 °C
